Test results from patent publication US11814367B2, “Inhibitors of glycogen synthase 1 (GYS1) and methods of use thereof” (Maze Therapeutics, Inc., priority 2021, dated 2023).

What was measured:
[1] = biological target: hGYS1 enzyme (recombinant hGYS1/GN1 protein) (Homo sapiens (Human), UniProt P13807); test: GYS1 coupled enzyme assay (PK/LDH); format: biochemical; conditions: hGYS1/GN1 50 nM, UDP-Glucose 0.8 mM, G6P 1 mM; geometric mean of at least 2 runs
[2] = biological target: hGYS2 enzyme (recombinant hGYS2/GN1 protein) (Homo sapiens (Human), UniProt P54840); test: GYS2 coupled enzyme assay (PK/LDH); format: biochemical; conditions: geometric mean of at least 2 assay runs on separate days, read-out: Avg_IC50
hGYS2 enzyme (recombinant hGYS2/GN1 protein), sequence (P54840 whole entry): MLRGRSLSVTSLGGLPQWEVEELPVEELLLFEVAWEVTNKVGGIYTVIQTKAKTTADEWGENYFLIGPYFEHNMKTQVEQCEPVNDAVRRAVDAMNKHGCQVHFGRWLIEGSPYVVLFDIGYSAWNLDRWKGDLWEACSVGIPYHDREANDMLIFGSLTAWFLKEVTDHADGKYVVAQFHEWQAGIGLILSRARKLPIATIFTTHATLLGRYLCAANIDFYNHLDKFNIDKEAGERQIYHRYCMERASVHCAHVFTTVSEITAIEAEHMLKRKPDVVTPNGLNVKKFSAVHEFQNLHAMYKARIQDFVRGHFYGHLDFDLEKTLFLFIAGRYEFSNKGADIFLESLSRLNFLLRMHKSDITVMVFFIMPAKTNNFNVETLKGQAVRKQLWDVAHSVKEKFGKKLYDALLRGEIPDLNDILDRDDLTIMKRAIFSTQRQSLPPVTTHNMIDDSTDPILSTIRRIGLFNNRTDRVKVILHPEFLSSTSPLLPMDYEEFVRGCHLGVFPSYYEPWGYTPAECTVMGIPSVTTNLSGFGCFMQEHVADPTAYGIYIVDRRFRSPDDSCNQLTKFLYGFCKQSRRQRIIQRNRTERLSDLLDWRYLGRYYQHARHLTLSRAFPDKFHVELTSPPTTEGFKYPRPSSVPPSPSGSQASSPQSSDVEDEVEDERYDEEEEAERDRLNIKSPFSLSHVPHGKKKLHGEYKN
hGYS2 enzyme (recombinant hGYS2/GN1 protein), sequence (P46976 whole entry partner): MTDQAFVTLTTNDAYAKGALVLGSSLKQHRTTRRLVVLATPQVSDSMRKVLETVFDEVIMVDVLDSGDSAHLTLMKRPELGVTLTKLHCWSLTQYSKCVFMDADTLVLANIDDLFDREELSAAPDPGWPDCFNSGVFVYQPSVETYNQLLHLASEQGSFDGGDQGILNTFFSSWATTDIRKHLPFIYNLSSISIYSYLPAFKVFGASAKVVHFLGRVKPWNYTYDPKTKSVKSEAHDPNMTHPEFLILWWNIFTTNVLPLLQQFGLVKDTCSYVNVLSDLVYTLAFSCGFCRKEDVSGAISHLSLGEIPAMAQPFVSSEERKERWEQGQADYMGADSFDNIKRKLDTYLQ
From the text: The GYS2 coupled enzyme assay is a kinetic biochemical assay that indirectly quantifies the rate of glycogen synthesis by coupling the conversion of GYS2 substrate UDP-glucose into UDP with downstream enzymatic reactions. UDP is released from UDP-glucose as glucose monomers are linked into the growing glycogen strand by GYS2. The coupled assay then proceeds with pyruvate kinase utilizing UDP and phospho(enol)pyruvate (PEP) to form pyruvate. Lactate dehydrogenase then converts pyruvate and NADH into lactate and NAD+. Oxidation of NADH to NAD+ can be measured continuously with a plate reader by quantifying the decrease in NADH absorbance at 340 nm over time.
Compounds that inhibit the hGYS2 enzyme and, subsequently, the downstream conversion of NADH to NAD+, were tested using assay ready plates (black, clear bottom 384 well plates) in a final DMSO reaction volume of 2.5% DMSO. The Assay Buffer contained 50 mM Tris pH 7.5, 2 mM MgCl2, and 100 mM KCl. Fresh stocks of BSA at a final concentration of 0.02% and TCEP 1 mM were added before splitting buffer into hGYS2 buffer and substrate buffer. To the hGYS2 buffer, rabbit liver glycogen was added at a final concentration of 0.2% glycogen. Glucose-6-Phosphate was added at 2 mM, recombinant hGYS2/GN1 protein was added at 200 nM to the substrate buffer, phosphoenolpyruvate (PEP) was added at 2 mM, UDP-Glucose was added at 2 mM, NADH was added at 0.6 mM, and Pyruvate Kinase/Lactate Dehydrogenase was added at 20 units/mL. The reaction was initiated by mixing hGYS2 buffer and substrate buffer at a 1:1 ratio. Both buffers were plated using a liquid dispensing device with hGYS2 buffer plated first followed by the substrate buffer. Plates were spun briefly to eliminate air bubbles and are immediately read in continuous mode at an absorbance of 340 nm, for 10 time points in one-minute increments, for a total of 10 minutes. The slope from these 10 time points was normalized to the positive and negative control wells. The duplicate % inhibition values are then averaged and fit to a Hill equation for dose response according to the Levenberg-Marquardt algorithm with the Hill equation maximum set to 100 and the minimum set to 0.
The results are shown in Table 4 below, which reports the IC50 of each compound. Unless otherwise specified, IC50 values are reported as the geometric mean of at least 2 assay runs on separate days. As shown in the table below, the compounds of the present invention are not potent inhibitors of human GYS2. Unless otherwise specified, IC50 values are reported as the geometric mean of at least two assay runs on separate days. Each run represents the average of a technical replicate, where each compound was assayed twice in the same plate. A superscript “#” symbol in Table 4 indicates results from a single assay run.

hGYS1 enzyme (recombinant hGYS1/GN1 protein), sequence (P13807 whole entry): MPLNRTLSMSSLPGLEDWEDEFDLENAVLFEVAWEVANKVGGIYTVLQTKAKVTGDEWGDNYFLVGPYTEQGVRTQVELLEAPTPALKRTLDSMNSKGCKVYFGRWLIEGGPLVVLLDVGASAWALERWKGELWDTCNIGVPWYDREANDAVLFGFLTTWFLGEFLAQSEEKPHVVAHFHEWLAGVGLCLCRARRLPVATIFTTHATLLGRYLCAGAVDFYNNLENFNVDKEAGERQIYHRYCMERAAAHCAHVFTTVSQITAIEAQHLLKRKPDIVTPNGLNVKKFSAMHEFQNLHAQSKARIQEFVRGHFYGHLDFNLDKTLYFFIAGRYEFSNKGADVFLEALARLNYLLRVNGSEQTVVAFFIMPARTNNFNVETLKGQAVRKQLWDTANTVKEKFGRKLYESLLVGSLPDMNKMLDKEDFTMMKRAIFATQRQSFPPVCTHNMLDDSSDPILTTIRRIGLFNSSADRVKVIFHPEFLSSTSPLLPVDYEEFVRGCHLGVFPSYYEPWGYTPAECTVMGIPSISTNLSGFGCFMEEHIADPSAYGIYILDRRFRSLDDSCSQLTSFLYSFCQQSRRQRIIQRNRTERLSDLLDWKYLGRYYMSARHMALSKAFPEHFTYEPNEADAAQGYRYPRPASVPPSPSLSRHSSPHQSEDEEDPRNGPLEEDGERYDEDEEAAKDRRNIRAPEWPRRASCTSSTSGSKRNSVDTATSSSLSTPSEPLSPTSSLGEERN
hGYS1 enzyme (recombinant hGYS1/GN1 protein), sequence (P46976 whole entry partner): as the sequence (P46976 whole entry partner) above

Compound	IC50 [1]	IC50 [2]
CC(C)c1ccc([C@@H](NC(=O)[C@@H]2C[C@@H](F)CN2C(=O)C(O)C(C)C)c2ccccc2)cc1 (stereo partly drawn) [Compound 185, (2S,4R)-4-fluoro-1-(2-hydroxy-3-methylbutanoyl)-N-[(S)-phenyl[4-(propan-2-yl)phenyl]methyl]pyrrolidine-2-carboxamide]	0.026 µM	> 100 µM
(2S,4R)-N-[(S)-(4- cyclopropyl-3- fluorophenyl)(phenyl) methyl]-4-fluoro-1- [2-(1H-1,2,3-triazol-5- yl)acetyl]pyrrolidine- 2-carboxamide [Compound 439]	0.185 µM	> 100 µM
CC(C)c1ccc([C@@H](NC(=O)[C@@H]2C[C@@H](F)CN2C(=O)Cc2noc(C(C)C)n2)c2ccccc2)cc1 [Compound 87, (2S,4R)-4-fluoro-N-[(S)-phenyl[4-(propan-2-yl)phenyl]methyl]-1-{2-[5-(propan-2-yl)-1,2,4-oxadiazol-3-yl]acetyl}pyrrolidine-2-carboxamide]	0.028 µM	> 100 µM
CC(C)c1ccc([C@@H](NC(=O)[C@@H]2C[C@@H](F)CN2C(=O)Cn2cccn2)c2ccccc2)cc1 (stereo in doubt) [Compound 221, (2S,4RS)-4-fluoro-N-[(S)-phenyl[4-(propan-2-yl)phenyl]methyl]-1-[2-(1H-pyrazol-1-yl)acetyl]pyrrolidine-2-carboxamide]	0.043 µM	> 100 µM
CC(C)c1ccc([C@@H](NC(=O)[C@@H]2C[C@@H](F)CN2C(=O)CCc2cnc3[nH]ccc3c2)c2ccccc2)cc1 [Compound 134, (2S,4R)-4-fluoro-N-[(S)-phenyl[4-(propan-2-yl)phenyl]methyl]-1-(3-{1H-pyrrolo[2,3-b]pyridin-5-yl}propanoyl)pyrrolidine-2-carboxamide]	0.041 µM	> 100 µM
CC(C)c1ccc([C@@H](NC(=O)[C@@H]2C[C@@H](F)CN2C(=O)Cc2ccc(F)cn2)c2ccccc2)cc1 [Compound 36, (2S,4R)-4-fluoro-1-[2-(5-fluoropyridin-2-yl)acetyl]-N-[(S)-phenyl[4-(propan-2-yl)phenyl]methyl]pyrrolidine-2-carboxamide]	0.073 µM	> 100 µM
CC(C)c1c(F)cc(C(NC(=O)[C@@H]2C[C@@H](F)CN2C(=O)Cc2ncco2)c2ccccc2)cc1F (single isomer, unassigned) [Compound 661, (2S,4R)-N-[(S) or (R)-[3,5-difluoro-4-(propan-2-yl)phenyl](phenyl)methyl]-4-fluoro-1-[2-(1,3-oxazol-2-yl)acetyl]pyrrolidine-2-carboxamide]	0.043 µM	> 100 µM
CC(=O)N1CC2(CC(C(=O)N3C[C@H](F)C[C@H]3C(=O)N[C@@H](c3ccccc3)c3ccc(C(C)C)cc3)=NO2)C1 [Compound 151, (2S,4R)-1-{2-acetyl-5-oxa-2,6-diazaspiro[3.4]oct-6-ene-7-carbonyl}-4-fluoro-N-[(S)-phenyl[4-(propan-2-yl)phenyl]methyl]pyrrolidine-2-carboxamide]	0.241 µM	> 100 µM
Cc1ccc(CCC(=O)N2C[C@H](F)C[C@H]2C(=O)N[C@@H](c2ccccc2)c2ccc(C(C)C)cc2)c(C)n1 [Compound 110, (2S,4R)-1-[3-(2,6-dimethylpyridin-3-yl)propanoyl]-4-fluoro-N-[(S)-phenyl[4-(propan-2-yl)phenyl]methyl]pyrrolidine-2-carboxamide]	0.033 µM	> 100 µM
CC(=O)N(C)CC(=O)N1C[C@H](F)C[C@H]1C(=O)N[C@@H](c1ccccc1)c1ccc(C(C)C)cc1 [Compound 142, (2S,4R)-4-fluoro-1-[2-(N-methylacetamido)acetyl]-N-[(S)-phenyl[4-(propan-2-yl)phenyl]methyl]pyrrolidine-2-carboxamide]	0.077 µM	> 100 µM
CC(=O)N1CC[C@H](O)[C@H]1C(=O)N[C@@H](c1ccccc1)c1ccc(C(C)C)cc1 [Compound 206, (2S,3S)-1-acetyl-3-hydroxy-N-[(S)-phenyl[4-(propan-2-yl)phenyl]methyl]pyrrolidine-2-carboxamide]	2.48 µM	> 100 µM
CC(=O)N1CCC2(CC1)CC2C(=O)N1C[C@H](F)C[C@H]1C(=O)N[C@@H](c1ccccc1)c1ccc(C(C)C)cc1 (stereo partly drawn) [Compound 174, (2S,4R)-1-{6-acetyl-6-azaspiro[2.5]octane-1-carbonyl}-4-fluoro-N-[(S)-phenyl[4-(propan-2-yl)phenyl]methyl]pyrrolidine-2-carboxamide]	0.179 µM	> 100 µM
CC(C)c1ccc([C@@H](NC(=O)[C@@H]2CCCN2C(=O)CCC(N)=O)c2ccccc2)cc1 [Compound 213, (2S)-1-(3-carbamoylpropanoyl)-N-[(S)-phenyl[4-(propan-2-yl)phenyl]methyl]pyrrolidine-2-carboxamide]	0.282 µM	> 100 µM
CC(=O)Nc1ccc(CC(=O)N2C[C@H](F)C[C@H]2C(=O)N[C@@H](c2ccccc2)c2ccc(C(C)C)cc2)cc1 [Compound 107, (2S,4R)-1-[2-(4-acetamidophenyl)acetyl]-4-fluoro-N-[(S)-phenyl[4-(propan-2-yl)phenyl]methyl]pyrrolidine-2-carboxamide]	0.019 µM	> 100 µM
O=C(N[C@@H](c1ccccc1)c1ccc(C2CC2)c(F)c1)[C@@H]1C[C@@H](F)CN1C(=O)CN1CCOC1=O [Compound 424, (2S,4R)-N-[(S)-(4-cyclopropyl-3-fluorophenyl)(phenyl)methyl]-4-fluoro-1-[2-(2-oxo-1,3-oxazolidin-3-yl)acetyl] pyrrolidine-2-carboxamide]	0.287 µM	> 100 µM
CC(C)c1ccc([C@@H](NC(=O)[C@@H]2C[C@@H](F)CN2C(=O)CNC(=O)N2CCN(C(=O)OC(C)(C)C)CC2)c2ccccc2)cc1F [Compound 366, tert-butyl 4-({2-[(2S,4R)-4-fluoro-2-{[(S)-[3-fluoro-4-(propan-2-yl)phenyl](phenyl)methyl]carbamoyl}pyrrolidin-1-yl]-2-oxoethyl}carbamoyl) piperazine-1-carboxylate]	0.02 µM	> 100 µM
CC(C)c1ccc([C@@H](NC(=O)[C@@H]2C[C@@H](F)CN2C(=O)Cc2cncnc2)c2ccccc2)cc1 [Compound 27, (2S,4R)-4-fluoro-N-[(S)-phenyl[4-(propan-2-yl)phenyl]methyl]-1-[2-(pyrimidin-5-yl)acetyl]pyrrolidine-2-carboxamide]	0.023 µM	> 100 µM
CC(C)c1ccc([C@@H](NC(=O)[C@@H]2C[C@@H](F)CN2C(=O)CNC(=O)C(F)(F)F)c2ccccc2)cc1 [Compound 187, (2S,4R)-4-fluoro-N-[(S)-phenyl[4-(propan-2-yl)phenyl]methyl]-1-[2-(2,2,2-trifluoroacetamido)acetyl] pyrrolidine-2-carboxamide]	0.073 µM	> 100 µM
Cc1nnnn1CC(=O)N1C[C@H](F)C[C@H]1C(=O)N[C@@H](c1ccccc1)c1ccc(C(C)C)cc1 [Compound 226, (2RS,4R)-4-fluoro-1-[2-(5-methyl-1H-1,2,3-tetrazol-1-yl)acetyl]-N-[(S)-phenyl[4-(propan-2-yl)phenyl]methyl]pyrrolidine-2-carboxamide]	0.083 µM	> 100 µM
CC(=O)N1CCCC(C(=O)N2C[C@H](F)C[C@H]2C(=O)N[C@@H](c2ccccc2)c2ccc(C(C)C)cc2)CC1 (stereo partly drawn) [Compound 169, (2S,4R)-1-(1-acetylazepane-4-carbonyl)-4-fluoro-N-[(S)-phenyl[4-(propan-2-yl)phenyl]methyl]pyrrolidine-2-carboxamide]	0.091 µM	> 100 µM
CC(=O)NCC(=O)N1CCC[C@H]1C(=O)N[C@@H](c1ccccc1)c1ccc(C2CC2)c(F)c1 [Compound 421, (2S)-N-[(S)-(4-cyclopropyl-3-fluorophenyl)(phenyl)methyl]-1-(2-acetamidoacetyl) pyrrolidine-2-carboxamide]	0.294 µM	> 100 µM
CC(C)c1ccc([C@@H](NC(=O)[C@@H]2C[C@@H](F)CN2C(=O)CCc2c[nH]c3ncccc23)c2ccccc2)cc1 [Compound 104, (2S,4R)-4-fluoro-N-[(S)-phenyl[4-(propan-2-yl)phenyl]methyl]-1-(3-{1H-pyrrolo[2,3-b]pyridin-3-yl}propanoyl)pyrrolidine-2-carboxamide]	0.061 µM	> 100 µM
